In US20160137630A1, “INDUCTION OF GATA2 BY HDAC1 AND HDAC2 INHIBITORS” (ACETYLON PHARMACEUTICALS, INC., priority 2014, published 2016):
“And” between values parts separate entries of the source, which are not always exact repeats. Identical values can stand only once. Like-named read-outs stand apart in the source and are kept apart here.

How the values were obtained:
Experiment in all cases: in vitro biochemical HDAC inhibition assay
HDAC1 = HDAC1 (Homo sapiens, UniProt Q13547); details: read-out: IC50 HDAC1
HDAC1, sequence (Q13547 whole entry): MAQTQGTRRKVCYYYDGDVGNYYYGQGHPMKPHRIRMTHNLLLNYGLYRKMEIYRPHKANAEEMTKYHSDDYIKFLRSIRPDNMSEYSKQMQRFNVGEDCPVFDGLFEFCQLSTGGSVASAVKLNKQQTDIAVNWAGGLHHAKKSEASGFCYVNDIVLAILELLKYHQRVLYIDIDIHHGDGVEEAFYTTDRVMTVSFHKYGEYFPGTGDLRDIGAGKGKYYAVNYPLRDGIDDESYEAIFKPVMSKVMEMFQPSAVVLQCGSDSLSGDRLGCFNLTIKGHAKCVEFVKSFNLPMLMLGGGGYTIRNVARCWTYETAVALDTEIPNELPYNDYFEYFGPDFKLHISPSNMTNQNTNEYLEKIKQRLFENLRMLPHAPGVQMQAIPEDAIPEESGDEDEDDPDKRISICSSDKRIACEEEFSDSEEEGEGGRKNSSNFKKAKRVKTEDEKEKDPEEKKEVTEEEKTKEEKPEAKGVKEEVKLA

HDAC2 = HDAC2 (Homo sapiens, UniProt Q92769); details: read-out: IC50 HDAC2
HDAC2, sequence (Q92769 whole entry): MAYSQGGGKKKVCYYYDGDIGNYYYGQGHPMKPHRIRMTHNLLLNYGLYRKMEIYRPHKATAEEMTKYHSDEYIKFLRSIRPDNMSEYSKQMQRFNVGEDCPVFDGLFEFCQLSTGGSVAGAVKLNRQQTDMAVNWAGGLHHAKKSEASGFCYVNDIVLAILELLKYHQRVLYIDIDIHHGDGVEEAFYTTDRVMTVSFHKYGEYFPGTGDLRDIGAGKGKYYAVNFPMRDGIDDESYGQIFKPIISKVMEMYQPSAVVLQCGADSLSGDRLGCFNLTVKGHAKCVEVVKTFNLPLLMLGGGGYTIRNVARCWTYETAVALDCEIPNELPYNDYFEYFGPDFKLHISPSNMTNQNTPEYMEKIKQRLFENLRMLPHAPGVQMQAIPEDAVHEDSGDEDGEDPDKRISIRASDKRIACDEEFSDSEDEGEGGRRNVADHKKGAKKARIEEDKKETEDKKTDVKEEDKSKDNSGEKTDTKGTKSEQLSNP

HDAC3 = HDAC3 (Homo sapiens, UniProt O15379); details: for IC50: read-out: IC50 HDAC3
HDAC3, sequence (O15379 whole entry): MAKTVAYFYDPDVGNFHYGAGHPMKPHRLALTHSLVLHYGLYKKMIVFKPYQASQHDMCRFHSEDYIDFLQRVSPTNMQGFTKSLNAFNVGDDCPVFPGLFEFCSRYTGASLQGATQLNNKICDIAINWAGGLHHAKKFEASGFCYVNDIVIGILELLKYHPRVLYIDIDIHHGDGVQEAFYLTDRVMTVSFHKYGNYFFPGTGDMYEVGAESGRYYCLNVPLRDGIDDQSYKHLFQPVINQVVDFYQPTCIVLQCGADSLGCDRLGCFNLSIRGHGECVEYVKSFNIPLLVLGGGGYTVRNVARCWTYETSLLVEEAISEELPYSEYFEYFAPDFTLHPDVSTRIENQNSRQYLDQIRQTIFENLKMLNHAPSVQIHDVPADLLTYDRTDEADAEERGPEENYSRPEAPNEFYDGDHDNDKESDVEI
HDAC3, sequence (Q9Y618 395-489 partner limits assumed): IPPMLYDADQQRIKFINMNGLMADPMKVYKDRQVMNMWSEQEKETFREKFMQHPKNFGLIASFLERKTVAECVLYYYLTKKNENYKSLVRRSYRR

IC50 (HDAC1; Table 4) | IC50 (HDAC2; Table 4) | IC50 (HDAC3; Table 4) | IC50 (HDAC1; Table 2) | IC50 (HDAC2; Table 2) | IC50 (HDAC3; Table 2) | IC50 HDAC3 (HDAC3; Table 2) | SMILES
1400 nM | > 2000 nM | 23 nM | – | – | – | – | Nc1ccccc1NC(=O)c1ccc(N2CCNCC2)cc1C1CC1 [Compound 2006]
– | – | – | > 2000 nM | > 2000 nM | > 2000 nM | – | Nc1cc(-c2ccccc2)sc1NC(=O)c1cnc2cc(N3CCNCC3)ccc2c1 [N-(3-amino-5-phenylthiophen-2-yl)-7-(piperazin-1-yl)quinoline-3-carboxamide]
– | – | – | 1970 nM | 336 nM | 798 nM | – | Nc1ccc(-c2ccccc2)nc1NC(=O)c1cnc2cc(N3CCNCC3)ccc2c1 [N-(3-amino-6-phenylpyridin-2-yl)-7-(piperazin-1-yl)quinoline-3-carboxamide]
– | – | – | 6.8 nM | 31 nM | 373 nM | – | Nc1ccc(-c2ccccc2)cc1NC(=O)c1cnc2c(ccn2CCN2CCOCC2)c1 [N-(4-amino-[1,1′-biphenyl]-3-yl)-1-(2-morpholinoethyl)-1H-pyrrolo[2,3-b]pyridine-5-carboxamide]
– | – | – | – | 301 nM | > 2000 nM | – | COCCNc1ccc2cc(C(=O)Nc3cc(-c4ccccc4)ccc3N)cnc2c1C1CC1 [N-(4-amino-[1,1′-biphenyl]-3-yl)-8-cyclopropyl-7-((2-methoxyethyl)amino)quinoline-3-carboxamide]
– | – | – | 295 nM | 799 nM | > 2000 nM | – | Nc1ccc(-c2ccccc2)cc1NC(=O)c1cnc2c(C3CC3)c(N3CCOCC3)ccc2c1 [N-(4-amino-[1,1′-biphenyl]-3-yl)-8-cyclopropyl-7-morpholinoquinoline-3-carboxamide]
– | – | – | 15 nM | 70 nM | 689 nM | – | Nc1ccc(-c2ccccc2)cc1NC(=O)c1ccc2c(c1)cc(C1CC1)n2CCN1CCOCC1 [N-(4-amino-[1,1′-biphenyl]-3-yl)-2-cyclopropyl-1-(2-morpholinoethyl)-1H-indole-5-carboxamide]
8.53 nM | 31.5 nM | 259 nM | – | – | – | – | CN1CCN(C(=O)N2CCC(C)(Nc3ncc(C(=O)Nc4cc(-c5cccs5)ccc4N)cn3)CC2)CC1 [Compound 2009]
– | – | – | > 2000 nM | 1560 nM | > 2000 nM | – | COCCOc1cc2ncc(C(=O)Nc3cc(-c4ccccc4)ccc3N)cc2cc1C1CC1 [N-(4-amino-[1,1′-biphenyl]-3-yl)-6-cyclopropyl-7-(2-methoxyethoxy)quinoline-3-carboxamide]
– | – | – | 7.1 nM | 11 nM | 175 nM | – | CN1CCN(CCn2ccc3cc(C(=O)Nc4cc(-c5ccccc5)ccc4N)ccc32)CC1 [N-(4-amino-[1,1′-biphenyl]-3-yl)-1-(2-(4-methylpiperazin-1-yl)ethyl)-1H-indole-5-carboxamide]
– | – | – | 3.1 nM | 14 nM | 99 nM | – | Nc1ccc(-c2cccs2)cc1NC(=O)c1cnc2c(C3CC3)c(N3CCNCC3)ccc2c1 [N-(2-amino-5-(thiophen-2-yl)phenyl)-8-cyclopropyl-7-(piperazin-1-yl)quinoline-3-carboxamide]
– | – | – | 1230 nM | 1190 nM and 1880 nM | – | – | Nc1cnc(-c2ccccc2)cc1NC(=O)c1cnc2cc(N3CCNCC3)ccc2c1 [N-(5-amino-2-phenylpyridin-4-yl)-7-(piperazin-1-yl)quinoline-3-carboxamide]
– | – | – | 7.8 nM | 15 nM | 164 nM | – | Nc1ccc(-c2ccccc2)cc1NC(=O)c1cnc2c(C3CC3)c(N3CCNCC3)ccc2c1 [N-(4-amino-[1,1′-biphenyl]-3-yl)-8-cyclopropyl-7-(piperazin-1-yl)quinoline-3-carboxamide]
– | – | – | 944 nM | 667 nM | > 2000 nM | – | COCCN(C)c1cc2ncc(C(=O)Nc3cc(-c4cccs4)ccc3N)cc2cc1C1CC1 [N-(2-amino-5-(thiophen-2-yl)phenyl)-6-cyclopropyl-7-((2-methoxyethyl)(methyl)amino)quinoline-3-carboxamide]
– | – | – | 89 nM | 243 nM | 1550 nM | – | COCCNc1cc2ncc(C(=O)Nc3cc(-c4cccs4)ccc3N)cc2cc1C1CC1 [N-(2-amino-5-(thiophen-2-yl)phenyl)-6-cyclopropyl-7-((2-methoxyethyl)amino)quinoline-3-carboxamide]
– | – | – | 11 nM | 23 nM | 477 nM | – | Nc1ccc(-c2ccccc2)cc1NC(=O)c1ccc2nn(CCN3CCOCC3)cc2c1 [N-(4-amino-[1,1′-biphenyl]-3-yl)-2-(2-morpholinoethyl)-2H-indazole-5-carboxamide]
– | – | – | > 2000 nM | 1220 nM | > 2000 nM | – | COCCN(C)c1cc2ncc(C(=O)Nc3cc(-c4ccccc4)ccc3N)cc2cc1C1CC1 [N-(4-amino-[1,1′-biphenyl]-3-yl)-6-cyclopropyl-7-((2-methoxyethyl)(methyl)amino)quinoline-3-carboxamide]
– | – | – | > 2000 nM | 681 nM | 1900 nM | – | Nc1ccc(-c2ccccc2)cc1NC(=O)c1ccc2c(c1)c(C1CC1)cn2CCN1CCOCC1 [N-(4-amino-[1,1′-biphenyl]-3-yl)-3-cyclopropyl-1-(2-morpholinoethyl)-1H-indole-5-carboxamide]
– | – | – | 7.4 nM | 19 nM | 344 nM | – | Nc1ccc(-c2ccccc2)cc1NC(=O)c1ccc2c(cnn2CCN2CCOCC2)c1 [N-(4-amino-[1,1′-biphenyl]-3-yl)-1-(2-morpholinoethyl)-1H-indazole-5-carboxamide]
– | – | – | 103 nM | 56 nM | 257 nM | – | Nc1ccc(-c2ccccc2)cc1NC(=O)c1cnc2c(N3CCNCC3)c(C3CC3)ccc2c1 [N-(4-amino-[1,1′-biphenyl]-3-yl)-7-cyclopropyl-8-(piperazin-1-yl)quinoline-3-carboxamide]
– | – | – | 652 nM | > 2000 nM | – | HDAC3 = No inhibition | Nc1ccc(-c2ccccc2)cc1NC(=O)c1cnc2c(C3CC3)c(NCc3ccccc3)ccc2c1 [N-(4-amino-[1,1′-biphenyl]-3-yl)-7-(benzylamino)-8-cyclopropylquinoline-3-carboxamide]
– | – | – | 1210 nM | 193 nM | 171 nM | – | Nc1sc(-c2ccccc2)cc1NC(=O)c1cnc2cc(N3CCNCC3)ccc2c1 [N-(2-amino-5-phenylthiophen-3-yl)-7-(piperazin-1-yl)quinoline-3-carboxamide]
– | – | – | 7 nM | 12 nM | 71 nM | – | Nc1ccc(-c2cccs2)cc1NC(=O)c1ccc2nc(N3CCNCC3)cnc2c1 [N-(2-amino-5-(thiophen-2-yl)phenyl)-2-(piperazin-1-yl)quinoxaline-6-carboxamide]
– | – | – | > 2000 nM | 624 nM | 104 nM | – | Nc1ccccc1NC(=O)c1ccc2nc(N3CCNCC3)ccc2c1 [N-(2-aminophenyl)-2-(piperazin-1-yl)quinoline-6-carboxamide]
– | – | – | > 2000 nM | > 2000 nM | > 2000 nM | – | COCCn1cc(C2CC2)c2cc(C(=O)Nc3cc(-c4ccccc4)ccc3N)ccc21 [N-(4-amino-[1,1′-biphenyl]-3-yl)-3-cyclopropyl-1-(2-methoxyethyl)-1H-indole-5-carboxamide]
